Reference: ChEMBL document CHEMBL4251601 (Eur J Med Chem, 2018)

Tests used:
[1] = molecular target: Calcium/calmodulin-dependent protein kinase type II subunit beta (Homo sapiens) (UniProt Q13554); assay: Inhibition of recombinant full length human His-tagged CAMK2B expressed in baculovirus expression system at 0.1 uM by Z'-Lyte assay relative to control
[2] = molecular target: Hepatocyte growth factor receptor (Homo sapiens) (UniProt P08581); assay: Inhibition of recombinant human His-tagged c-Met cytoplasmic domain expressed in baculovirus expression system at 0.1 uM by Z'-Lyte assay relative to control
[3] = molecular target: Serine/threonine-protein kinase MRCK beta (Homo sapiens) (UniProt Q9Y5S2); assay: Inhibition of recombinant human His-tagged CDC42 BPB expressed in baculovirus expression system at 1 uM by Z'-Lyte assay relative to control
[4] = molecular target: Serine/threonine-protein kinase PAK 2 (Homo sapiens) (UniProt Q13177); assay: Inhibition of recombinant human full length GST-tagged PAK2 expressed in baculovirus expression system at 1 uM by Z'-Lyte assay relative to control
[5] = molecular target: Tyrosine-protein kinase receptor TYRO3 (Homo sapiens) (UniProt Q06418); assay: Inhibition of recombinant human GST-tagged TYRO3 cytoplasmic domain (451 to 890 residues) expressed in baculovirus expression system at 0.1 uM by Z'-Lyte assay relative to control
[6] = tested on: ALK tyrosine kinase receptor (Homo sapiens), Q9UM73 [C1156Y]; assay: Inhibition of recombinant N-terminal GST-tagged human ALK cytoplasmic domain (1058 to 1620 residues) C1156Y mutant expressed in baculovirus expression system at 1 uM by TR-FRET assay relative to control
[7] = molecular target: Mitogen-activated protein kinase 1 (Homo sapiens) (UniProt P28482); assay: Inhibition of recombinant human full length GST-tagged ERK2 expressed in Escherichia coli at 1 uM by Z'-Lyte assay relative to control
[8] = molecular target: Cytoplasmic tyrosine-protein kinase BMX (Homo sapiens) (UniProt P51813); assay: Inhibition of recombinant full length human His-tagged BMX expressed in baculovirus expression system at 1 uM by TR-FRET assay relative to control
[9] = molecular target: Mitogen-activated protein kinase kinase kinase 9 (Homo sapiens) (UniProt P80192); assay: Inhibition of recombinant human GST-tagged MLK1 expressed in baculovirus expression system at 0.1 uM by Z'-Lyte assay relative to control
[10] = molecular target: Serine/threonine-protein kinase 26 (Homo sapiens) (UniProt Q9P289); assay: Inhibition of recombinant human full length GST-tagged MST4 expressed in baculovirus expression system at 0.1 uM by Z'-Lyte assay relative to control
[11] = molecular target: Leucine-rich repeat serine/threonine-protein kinase 2 (Homo sapiens) (UniProt Q5S007); assay: Inhibition of recombinant human GST-tagged LRRK2 (970 to 2527 residues) expressed in baculovirus expression system at 0.1 uM by TR-FRET assay relative to control
[12] = molecular target: Serine/threonine-protein kinase 10 (Homo sapiens) (UniProt O94804); assay: Inhibition of LOK1 (unknown origin) at 1 uM by Z'-Lyte assay relative to control
Mus musculus = assay: In vivo inhibition of CDK4/6 in nude mouse xenografted with human COLO205 cells assessed as reduction in Ser-780-phosphorylated Rb level in tumor administered via oral gavage after 24 hrs by Western blot analysis; type: functional, organism-based
[13] = molecular target: Tyrosine-protein kinase Lck (Homo sapiens) (UniProt P06239); assay: Inhibition of recombinant human full length His-tagged LCK expressed in baculovirus expression system at 1 uM by Z'-Lyte assay relative to control
[14] = molecular target: Tyrosine-protein kinase ITK/TSK (Homo sapiens) (UniProt Q08881); assay: Inhibition of recombinant full length human GST-tagged ITK expressed in baculovirus expression system at 1 uM by TR-FRET assay relative to control
[15] = molecular target: Tyrosine-protein kinase JAK1 (Homo sapiens) (UniProt P23458); assay: Inhibition of recombinant human GST-tagged JAK1 expressed in baculovirus expression system at 1 uM by TR-FRET assay relative to control
[16] = 1-octanol-phosphate buffer distribution coefficient, log D of the compound at pH 7.4 after 1 hr by LC-MS/MS method; type: physicochemical
[17] = molecular target: Vascular endothelial growth factor receptor 2 (Homo sapiens) (UniProt P35968); assay: Inhibition of recombinant human His-tagged KDR cytoplasmic domain expressed in baculovirus expression system at 0.1 uM by Z'-Lyte assay relative to control
[18] = AUC (0 to infinity) in Sprague-Dawley rat at 5 mg/kg, po administered as single dose by LC-MS/MS analysis; type: ADME, organism-based; design: dose 5 mg/kg, route oral, time infinity; conditions: Sprague-Dawley, in vivo
[19] = molecular target: Epidermal growth factor receptor (Homo sapiens) (UniProt P00533); assay: Inhibition of recombinant human GST-tagged EGFR cytoplasmic domain expressed in baculovirus expression system at 0.1 uM by TR-FRET assay relative to control
[20] = molecular target: Tyrosine-protein kinase Lck (Homo sapiens) (UniProt P06239); assay: Inhibition of recombinant human full length His-tagged LCK expressed in baculovirus expression system at 0.1 uM by Z'-Lyte assay relative to control
[21] = tested on: Proto-oncogene tyrosine-protein kinase receptor Ret (Homo sapiens), P07949 [V804L]; assay: Inhibition of recombinant human GST-tagged RET V804L mutant expressed in baculovirus expression system at 0.1 uM by Z'-Lyte assay relative to control
[22] = molecular target: High affinity nerve growth factor receptor (Homo sapiens) (UniProt P04629); assay: Inhibition of recombinant human His-tagged TRKA cytoplasmic domain expressed in baculovirus expression system at 1 uM by Z'-Lyte assay relative to control
[23] = molecular target: Glycogen synthase kinase-3 beta (Homo sapiens) (UniProt P49841); assay: Inhibition of recombinant human full length His-tagged GSK3beta expressed in baculovirus expression system at 0.1 uM by Z'-Lyte assay relative to control
[24] = molecular target: Ephrin type-B receptor 2 (Homo sapiens) (UniProt P29323); assay: Inhibition of recombinant human GST-tagged EPHB2 cytoplasmic domain (616 to 884 residues) expressed in baculovirus expression system at 1 uM by Z'-Lyte assay relative to control
[25] = molecular target: Proto-oncogene tyrosine-protein kinase Src (Homo sapiens) (UniProt P12931); assay: Inhibition of recombinant human full length His-tagged SRC expressed in baculovirus expression system at 0.1 uM by Z'-Lyte assay relative to control
[26] = molecular target: G protein-coupled receptor kinase 6 (Homo sapiens) (UniProt P43250); assay: Inhibition of recombinant human full length GST-tagged GRK6 expressed in baculovirus expression system at 1 uM by Z'-Lyte assay relative to control
[27] = molecular target: Tyrosine-protein kinase ITK/TSK (Homo sapiens) (UniProt Q08881); assay: Inhibition of recombinant full length human GST-tagged ITK expressed in baculovirus expression system at 0.1 uM by TR-FRET assay relative to control
[28] = molecular target: RAC-beta serine/threonine-protein kinase (Homo sapiens) (UniProt P31751); assay: Inhibition of recombinant full length human His-tagged AKT2 expressed in baculovirus expression system at 1 uM by TR-FRET assay relative to control
[29] = molecular target: Mitogen-activated protein kinase kinase kinase 14 (Homo sapiens, UniProt Q99558); assay: Inhibition of recombinant human GST-tagged NIK expressed in baculovirus expression system at 1 uM by Z'-Lyte assay relative to control
Mitogen-activated protein kinase kinase kinase 14, sequence (Q99558 whole entry, looked up): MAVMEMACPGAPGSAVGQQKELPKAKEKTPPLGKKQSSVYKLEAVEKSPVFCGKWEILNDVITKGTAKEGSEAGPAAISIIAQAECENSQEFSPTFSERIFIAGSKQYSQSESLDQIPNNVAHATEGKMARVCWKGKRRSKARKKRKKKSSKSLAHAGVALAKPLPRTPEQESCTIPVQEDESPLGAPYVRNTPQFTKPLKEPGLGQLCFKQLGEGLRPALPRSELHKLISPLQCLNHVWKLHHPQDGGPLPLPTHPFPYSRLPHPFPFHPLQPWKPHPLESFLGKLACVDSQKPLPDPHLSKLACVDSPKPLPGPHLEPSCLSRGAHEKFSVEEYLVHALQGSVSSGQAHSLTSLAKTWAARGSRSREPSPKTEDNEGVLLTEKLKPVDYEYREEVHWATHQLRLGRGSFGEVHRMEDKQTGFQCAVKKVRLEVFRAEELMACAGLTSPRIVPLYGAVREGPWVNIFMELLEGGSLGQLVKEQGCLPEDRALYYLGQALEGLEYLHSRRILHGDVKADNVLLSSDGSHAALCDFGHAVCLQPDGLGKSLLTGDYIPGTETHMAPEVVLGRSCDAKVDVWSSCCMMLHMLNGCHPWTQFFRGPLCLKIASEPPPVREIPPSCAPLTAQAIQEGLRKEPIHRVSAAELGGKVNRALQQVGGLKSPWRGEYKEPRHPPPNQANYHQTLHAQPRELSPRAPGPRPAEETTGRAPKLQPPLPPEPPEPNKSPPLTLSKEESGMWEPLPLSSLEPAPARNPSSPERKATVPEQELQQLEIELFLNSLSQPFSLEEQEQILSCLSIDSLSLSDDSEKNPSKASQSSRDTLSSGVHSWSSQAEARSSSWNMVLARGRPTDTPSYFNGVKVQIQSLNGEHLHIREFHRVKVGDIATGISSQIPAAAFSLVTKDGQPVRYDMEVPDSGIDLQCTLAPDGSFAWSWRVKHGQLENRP

Tyrosine-protein kinase ITK/TSK (Homo sapiens), sequence (Q08881 whole entry): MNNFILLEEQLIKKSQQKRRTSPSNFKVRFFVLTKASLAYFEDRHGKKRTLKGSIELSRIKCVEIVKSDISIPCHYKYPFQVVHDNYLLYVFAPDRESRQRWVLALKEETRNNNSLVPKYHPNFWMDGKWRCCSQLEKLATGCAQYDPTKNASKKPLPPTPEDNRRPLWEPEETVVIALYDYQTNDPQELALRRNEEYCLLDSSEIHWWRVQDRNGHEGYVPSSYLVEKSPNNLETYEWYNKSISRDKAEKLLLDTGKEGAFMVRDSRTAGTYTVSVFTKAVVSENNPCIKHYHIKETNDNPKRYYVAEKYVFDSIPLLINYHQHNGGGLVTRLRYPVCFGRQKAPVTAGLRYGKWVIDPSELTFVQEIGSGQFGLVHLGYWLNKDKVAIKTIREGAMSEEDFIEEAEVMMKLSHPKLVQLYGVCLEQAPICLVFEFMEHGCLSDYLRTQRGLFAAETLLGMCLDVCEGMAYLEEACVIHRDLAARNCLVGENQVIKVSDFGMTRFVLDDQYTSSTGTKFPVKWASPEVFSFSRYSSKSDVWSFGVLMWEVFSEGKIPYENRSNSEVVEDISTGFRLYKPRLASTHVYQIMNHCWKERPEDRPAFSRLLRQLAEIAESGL
Tyrosine-protein kinase Lck (Homo sapiens), sequence (P06239 2-509 limits assumed): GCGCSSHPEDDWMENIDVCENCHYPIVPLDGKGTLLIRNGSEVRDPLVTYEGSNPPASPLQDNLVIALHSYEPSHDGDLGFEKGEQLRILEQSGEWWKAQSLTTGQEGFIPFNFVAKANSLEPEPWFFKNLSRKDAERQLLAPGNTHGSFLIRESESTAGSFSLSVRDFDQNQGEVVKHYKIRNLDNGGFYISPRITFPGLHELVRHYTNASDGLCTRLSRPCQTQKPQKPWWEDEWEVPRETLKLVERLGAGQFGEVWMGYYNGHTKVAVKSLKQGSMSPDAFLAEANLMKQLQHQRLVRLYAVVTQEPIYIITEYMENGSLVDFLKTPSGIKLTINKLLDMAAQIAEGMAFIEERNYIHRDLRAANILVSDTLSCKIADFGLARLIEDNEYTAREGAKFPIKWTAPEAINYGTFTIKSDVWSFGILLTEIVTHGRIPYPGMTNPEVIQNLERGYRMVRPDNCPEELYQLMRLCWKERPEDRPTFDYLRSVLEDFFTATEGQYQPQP
Tyrosine-protein kinase receptor TYRO3 (Homo sapiens), sequence (Q06418 whole entry, the tested form may be a part): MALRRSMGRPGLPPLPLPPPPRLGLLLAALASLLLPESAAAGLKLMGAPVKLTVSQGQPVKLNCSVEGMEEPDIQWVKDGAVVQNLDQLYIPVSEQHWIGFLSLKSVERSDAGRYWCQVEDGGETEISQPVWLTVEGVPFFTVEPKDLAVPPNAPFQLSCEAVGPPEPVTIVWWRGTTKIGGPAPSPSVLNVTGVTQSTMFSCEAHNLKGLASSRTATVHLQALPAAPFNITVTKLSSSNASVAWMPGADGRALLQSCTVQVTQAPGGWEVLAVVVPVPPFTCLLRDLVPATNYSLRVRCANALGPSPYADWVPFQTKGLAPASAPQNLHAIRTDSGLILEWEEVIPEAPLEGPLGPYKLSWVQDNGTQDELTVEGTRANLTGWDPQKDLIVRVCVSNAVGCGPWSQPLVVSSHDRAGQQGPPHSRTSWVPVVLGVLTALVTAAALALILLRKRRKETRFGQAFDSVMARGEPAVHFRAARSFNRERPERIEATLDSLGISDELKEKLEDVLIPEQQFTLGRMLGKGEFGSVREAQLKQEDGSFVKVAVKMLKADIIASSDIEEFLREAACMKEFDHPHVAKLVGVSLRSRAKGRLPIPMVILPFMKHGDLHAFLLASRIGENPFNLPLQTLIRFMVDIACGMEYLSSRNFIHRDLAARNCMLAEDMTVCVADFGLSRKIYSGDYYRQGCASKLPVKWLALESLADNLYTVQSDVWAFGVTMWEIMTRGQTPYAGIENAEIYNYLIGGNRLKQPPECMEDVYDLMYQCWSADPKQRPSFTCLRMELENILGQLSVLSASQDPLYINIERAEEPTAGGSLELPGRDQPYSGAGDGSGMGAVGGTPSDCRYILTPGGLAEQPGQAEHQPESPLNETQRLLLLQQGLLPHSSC
Tyrosine-protein kinase JAK1 (Homo sapiens), sequence (P23458 whole entry): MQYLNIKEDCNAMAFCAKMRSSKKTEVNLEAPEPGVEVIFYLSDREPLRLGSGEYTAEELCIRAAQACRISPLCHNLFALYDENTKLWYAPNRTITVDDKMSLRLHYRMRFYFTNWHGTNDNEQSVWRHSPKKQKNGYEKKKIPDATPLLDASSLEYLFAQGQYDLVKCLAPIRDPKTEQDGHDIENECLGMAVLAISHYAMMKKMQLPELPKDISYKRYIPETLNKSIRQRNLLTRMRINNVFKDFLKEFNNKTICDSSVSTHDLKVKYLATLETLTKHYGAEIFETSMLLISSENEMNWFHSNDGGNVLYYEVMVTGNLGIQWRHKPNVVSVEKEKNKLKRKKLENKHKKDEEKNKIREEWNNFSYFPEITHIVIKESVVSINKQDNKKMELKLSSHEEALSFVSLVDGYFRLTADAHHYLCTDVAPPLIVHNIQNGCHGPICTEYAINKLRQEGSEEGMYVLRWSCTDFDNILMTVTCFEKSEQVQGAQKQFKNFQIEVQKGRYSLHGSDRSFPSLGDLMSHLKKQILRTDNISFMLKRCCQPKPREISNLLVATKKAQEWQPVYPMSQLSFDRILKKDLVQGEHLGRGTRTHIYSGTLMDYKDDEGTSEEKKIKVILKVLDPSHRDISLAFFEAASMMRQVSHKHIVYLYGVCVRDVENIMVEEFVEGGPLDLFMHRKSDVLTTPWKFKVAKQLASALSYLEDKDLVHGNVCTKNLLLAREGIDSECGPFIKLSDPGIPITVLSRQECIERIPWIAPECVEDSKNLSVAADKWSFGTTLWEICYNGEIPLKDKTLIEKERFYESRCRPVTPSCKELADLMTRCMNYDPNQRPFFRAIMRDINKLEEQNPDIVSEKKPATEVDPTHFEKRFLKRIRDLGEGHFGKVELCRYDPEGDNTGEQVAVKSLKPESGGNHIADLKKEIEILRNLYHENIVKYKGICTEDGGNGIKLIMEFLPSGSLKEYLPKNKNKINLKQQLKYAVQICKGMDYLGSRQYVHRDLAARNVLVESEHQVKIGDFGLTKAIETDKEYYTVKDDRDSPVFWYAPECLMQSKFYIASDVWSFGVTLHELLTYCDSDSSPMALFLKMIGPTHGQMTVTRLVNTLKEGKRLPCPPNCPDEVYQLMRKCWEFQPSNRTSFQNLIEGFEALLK
Serine/threonine-protein kinase 10 (Homo sapiens), sequence (O94804 whole entry, looked up): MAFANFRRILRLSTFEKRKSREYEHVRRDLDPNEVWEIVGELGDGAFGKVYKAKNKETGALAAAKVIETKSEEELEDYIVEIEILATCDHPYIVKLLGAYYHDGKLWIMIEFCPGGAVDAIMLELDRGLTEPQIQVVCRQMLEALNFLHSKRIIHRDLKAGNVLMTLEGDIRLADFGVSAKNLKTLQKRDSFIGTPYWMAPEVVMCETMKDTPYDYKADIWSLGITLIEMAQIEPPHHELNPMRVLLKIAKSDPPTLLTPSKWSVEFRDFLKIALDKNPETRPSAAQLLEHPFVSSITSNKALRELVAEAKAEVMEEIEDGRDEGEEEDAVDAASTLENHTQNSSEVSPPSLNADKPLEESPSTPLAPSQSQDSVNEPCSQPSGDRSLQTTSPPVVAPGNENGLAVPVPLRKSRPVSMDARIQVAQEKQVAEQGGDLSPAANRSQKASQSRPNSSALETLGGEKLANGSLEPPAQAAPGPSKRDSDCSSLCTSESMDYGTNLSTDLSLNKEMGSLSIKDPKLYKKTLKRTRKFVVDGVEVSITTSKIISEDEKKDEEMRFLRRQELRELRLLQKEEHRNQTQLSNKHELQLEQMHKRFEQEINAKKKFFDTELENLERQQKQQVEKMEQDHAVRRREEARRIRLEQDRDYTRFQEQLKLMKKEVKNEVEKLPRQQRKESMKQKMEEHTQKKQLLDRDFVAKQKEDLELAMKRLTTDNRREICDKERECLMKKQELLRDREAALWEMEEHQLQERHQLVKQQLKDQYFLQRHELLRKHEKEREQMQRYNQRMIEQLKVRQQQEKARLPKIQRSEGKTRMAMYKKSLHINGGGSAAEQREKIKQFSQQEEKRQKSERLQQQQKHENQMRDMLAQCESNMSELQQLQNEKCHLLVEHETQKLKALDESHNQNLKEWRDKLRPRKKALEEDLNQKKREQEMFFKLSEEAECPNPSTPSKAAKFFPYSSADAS

CC1=Nc2c(F)cc(-c3nc(Nc4ccc(C5CCN(C)CC5)cn4)ncc3F)cc2C12CCCC2 [CROZBACICLIB]
inhibition [1]: 25% | inhibition [2]: 12% | inhibition [3]: 68% | inhibition [4]: 10% | inhibition [5]: 0% | inhibition [6]: 28% | inhibition [7]: 5% | inhibition [8]: 19% | inhibition [9]: 0% | inhibition [10]: -5% | inhibition [11]: 12% | inhibition [12]: 81% | inhibition (Mus musculus): Dose-dependent effect | inhibition [13]: 13% | inhibition [14]: 3% | inhibition [15]: 24% | logD at 1 h [16]: 3.49 | inhibition [17]: 2% | AUC(0-inf) [18]: 1580 ng·h/mL | inhibition [19]: -5% | inhibition [20]: 3% | inhibition [21]: 2% | inhibition [22]: 48% | inhibition [23]: 12% | inhibition [24]: 3% | inhibition [25]: 3% | inhibition [26]: 4% | inhibition [27]: -8% | inhibition [28]: 9% | inhibition [29]: 105%
